Test results taken from ChEMBL document CHEMBL4229328, “Quest for Novel Chemical Entities through Incorporation of Silicon in Drug Scaffolds” (J Med Chem, 2018).
Converted amounts (≈) assume the structure as drawn.

Assays:
Staphylococcus aureus = type: functional
Enterococcus faecalis = type: functional, ATCC 19433
Pseudomonas aeruginosa = type: functional, ATCC 10145
Escherichia coli = type: functional, C3000 ATCC 15597
[1] = target: Sigma non-opioid intracellular receptor 1 (Cavia porcellus, UniProt Q60492); test: Displacement of [3H]-(+)pentazocine from sigma-1 receptor in guinea pig brain membranes after 180 mins by scintillation counting method; type: cell membranes, Membrane
[2] = target: T1, Sigma intracellular receptor 2 (Rattus norvegicus, UniProt Q5U3Y7); test: Displacement of [3H]-DTG from sigma-2 receptor in rat liver membranes after 180 mins by scintillation counting method; type: cell membranes, Membrane
T1 sequence (Q5U3Y7 whole entry): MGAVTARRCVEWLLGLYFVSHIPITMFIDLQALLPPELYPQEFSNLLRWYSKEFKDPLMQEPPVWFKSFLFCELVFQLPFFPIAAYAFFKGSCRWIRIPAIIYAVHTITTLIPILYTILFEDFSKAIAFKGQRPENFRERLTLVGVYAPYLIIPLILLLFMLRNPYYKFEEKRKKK

Histone deacetylase 2 = Histone deacetylase 2 (Homo sapiens, UniProt Q92769)
Histone deacetylase 1 = Histone deacetylase 1 (Homo sapiens, UniProt Q13547); test: Inhibition of human recombinant HDAC1 using Ac-Leu-Gly-Lys(Ac)-AMC as substrate preincubated for 30 mins followed by substrate addition and measured after 15 to 30 mins
[3] = Selectivity ratio of Ki for sigma-2 receptor in rat liver membranes to Ki for sigma-1 receptor in guinea pig brain membranes; type: cell membranes
[4] = target: Hydroxycarboxylic acid receptor 2 (Rattus norvegicus, UniProt Q80Z39); test: Agonist activity at rat GPR109A expressed in T-REx-CHO cells assessed as inhibition of forskolin-stimulated cAMP accumulation preincubated for 30 mins followed by forskolin stimulation and measured after 20 mins by TR-FRET assay; type: functional, cell-based
Protein Gpr81 = target: T2, Protein Gpr81 (Rattus norvegicus, UniProt G3V906); test: Agonist activity at rat GPR81 expressed in T-REx-CHO cells assessed as inhibition of forskolin-stimulated cAMP accumulation preincubated for 30 mins followed by forskolin stimulation and measured after 20 mins by TR-FRET assay; type: cell-based
T2 sequence (G3V906 whole entry): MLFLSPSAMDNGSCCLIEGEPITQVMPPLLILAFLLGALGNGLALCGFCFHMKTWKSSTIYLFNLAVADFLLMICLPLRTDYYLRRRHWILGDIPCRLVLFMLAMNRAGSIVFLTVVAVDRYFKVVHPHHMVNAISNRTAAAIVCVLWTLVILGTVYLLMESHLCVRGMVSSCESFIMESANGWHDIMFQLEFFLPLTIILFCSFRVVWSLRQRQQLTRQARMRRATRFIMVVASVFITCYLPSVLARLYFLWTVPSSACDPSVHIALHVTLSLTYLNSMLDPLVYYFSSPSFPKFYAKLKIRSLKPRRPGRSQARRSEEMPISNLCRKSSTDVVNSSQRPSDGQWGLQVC

[5] = Octanol-water distribution co-efficient, log D of the compound at pH 7.4; type: physicochemical
[6] = target: E3 ubiquitin-protein ligase XIAP (Homo sapiens, UniProt P98170); test: Inhibition of N-terminal His-tagged XIAP BIR3 domain (241 to 356 residues) (unknown origin) using fluorescein labeled SMAC peptide as substrate after 60 mins by TR-FRET assay
[7] = target: E3 ubiquitin-protein ligase XIAP (Homo sapiens, UniProt P98170, C202A/C213G); test: Inhibition of N-terminal His-tagged XIAP BIR2-3 domain (125 to 356 residues) C202A/C213G mutant (unknown origin) using fluorescein labeled SMAC peptide as substrate after 60 mins by HTRF assay
MCF7 = test: Cytotoxicity against human MCF7 cells after 24 hrs; type: functional, cell-based; conditions: MCF7, 24 h
HT-29 = test: Cytotoxicity against human HT-29 cells after 24 hrs; type: functional, cell-based; conditions: HT-29, 24 h
Chymotrypsinogen A = Chymotrypsinogen A (Bos taurus, UniProt P00766); test: Inhibition of bovine alpha-chymotrypsin using succinyl Ala-Ala-Pro-Phe-p-nitroanilide as substrate after 1 hr by Dixon plot analysis
[8] = target: Angiotensin-converting enzyme (Homo sapiens, UniProt P12821); test: Inhibition of human ACE using Hip-His-Leu-OH as substrate after 1 hr by fluorimetric method
[9] = target: Sodium-dependent serotonin transporter (Homo sapiens, UniProt P31645); type: cell-based, HEK293
[10] = target: Sodium-dependent noradrenaline transporter (Homo sapiens, UniProt P23975); test: Inhibition of human NET expressed in MDCK cells assessed as decrease in [3H]-noradrenaline reuptake after 10 mins by scintillation counting method; type: cell-based
[11] = target: Sodium-dependent dopamine transporter (Homo sapiens, UniProt Q01959); test: Inhibition of human DAT expressed in CHOK1 cells assessed as decrease in [3H]-dopamine reuptake after 10 mins by scintillation counting method; type: cell-based
Sequence of Sodium-dependent dopamine transporter (Q01959 whole entry): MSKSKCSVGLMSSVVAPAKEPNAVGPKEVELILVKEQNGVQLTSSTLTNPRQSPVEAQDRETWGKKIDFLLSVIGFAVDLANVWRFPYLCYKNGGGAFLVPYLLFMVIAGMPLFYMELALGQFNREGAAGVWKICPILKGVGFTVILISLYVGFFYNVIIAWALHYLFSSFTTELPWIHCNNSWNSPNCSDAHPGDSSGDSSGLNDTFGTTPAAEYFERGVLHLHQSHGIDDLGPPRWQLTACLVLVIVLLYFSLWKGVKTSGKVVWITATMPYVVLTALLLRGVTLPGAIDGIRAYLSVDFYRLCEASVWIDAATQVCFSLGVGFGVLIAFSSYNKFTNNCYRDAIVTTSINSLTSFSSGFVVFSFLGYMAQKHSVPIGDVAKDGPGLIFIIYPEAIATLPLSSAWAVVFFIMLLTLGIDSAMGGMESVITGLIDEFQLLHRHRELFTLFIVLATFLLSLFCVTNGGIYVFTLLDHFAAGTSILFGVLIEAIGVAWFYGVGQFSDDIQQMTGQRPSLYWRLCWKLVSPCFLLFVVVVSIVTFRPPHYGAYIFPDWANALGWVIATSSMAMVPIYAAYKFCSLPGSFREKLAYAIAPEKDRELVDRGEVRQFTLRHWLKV

Sequence of Hydroxycarboxylic acid receptor 2 (Q80Z39 whole entry): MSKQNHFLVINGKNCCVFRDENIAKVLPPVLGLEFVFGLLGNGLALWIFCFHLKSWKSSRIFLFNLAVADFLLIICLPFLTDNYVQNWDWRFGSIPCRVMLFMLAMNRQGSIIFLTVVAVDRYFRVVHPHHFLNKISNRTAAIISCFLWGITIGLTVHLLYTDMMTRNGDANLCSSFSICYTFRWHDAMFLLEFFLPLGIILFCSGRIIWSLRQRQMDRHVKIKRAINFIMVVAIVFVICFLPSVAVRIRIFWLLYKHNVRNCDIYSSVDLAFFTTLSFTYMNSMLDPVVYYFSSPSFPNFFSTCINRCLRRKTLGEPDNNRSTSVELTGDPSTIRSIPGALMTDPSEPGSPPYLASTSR
Sequence of Sigma non-opioid intracellular receptor 1 (Q60492 whole entry): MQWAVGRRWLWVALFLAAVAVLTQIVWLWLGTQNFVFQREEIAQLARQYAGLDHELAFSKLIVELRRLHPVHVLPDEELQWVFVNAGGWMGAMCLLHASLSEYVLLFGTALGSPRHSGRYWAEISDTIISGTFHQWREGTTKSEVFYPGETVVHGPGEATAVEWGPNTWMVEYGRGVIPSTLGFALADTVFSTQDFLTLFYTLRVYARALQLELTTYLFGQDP
Sequence of Sodium-dependent noradrenaline transporter (P23975 whole entry): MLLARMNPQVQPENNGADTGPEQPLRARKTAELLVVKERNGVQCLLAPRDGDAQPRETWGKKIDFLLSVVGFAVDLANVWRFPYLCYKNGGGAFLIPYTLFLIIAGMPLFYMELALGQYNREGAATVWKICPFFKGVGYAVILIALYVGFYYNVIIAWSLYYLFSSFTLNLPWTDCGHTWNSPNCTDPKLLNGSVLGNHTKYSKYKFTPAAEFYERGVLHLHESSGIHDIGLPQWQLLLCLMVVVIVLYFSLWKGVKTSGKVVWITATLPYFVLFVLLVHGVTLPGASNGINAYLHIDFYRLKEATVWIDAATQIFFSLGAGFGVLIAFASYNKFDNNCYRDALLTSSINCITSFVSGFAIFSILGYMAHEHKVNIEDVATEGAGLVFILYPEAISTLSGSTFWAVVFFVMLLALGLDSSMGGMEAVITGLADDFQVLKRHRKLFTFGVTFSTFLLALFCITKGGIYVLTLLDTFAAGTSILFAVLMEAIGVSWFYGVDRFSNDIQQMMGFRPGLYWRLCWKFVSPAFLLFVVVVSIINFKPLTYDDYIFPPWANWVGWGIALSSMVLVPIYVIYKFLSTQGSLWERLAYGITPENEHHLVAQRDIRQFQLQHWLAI
Sequence of Sodium-dependent serotonin transporter (P31645 whole entry): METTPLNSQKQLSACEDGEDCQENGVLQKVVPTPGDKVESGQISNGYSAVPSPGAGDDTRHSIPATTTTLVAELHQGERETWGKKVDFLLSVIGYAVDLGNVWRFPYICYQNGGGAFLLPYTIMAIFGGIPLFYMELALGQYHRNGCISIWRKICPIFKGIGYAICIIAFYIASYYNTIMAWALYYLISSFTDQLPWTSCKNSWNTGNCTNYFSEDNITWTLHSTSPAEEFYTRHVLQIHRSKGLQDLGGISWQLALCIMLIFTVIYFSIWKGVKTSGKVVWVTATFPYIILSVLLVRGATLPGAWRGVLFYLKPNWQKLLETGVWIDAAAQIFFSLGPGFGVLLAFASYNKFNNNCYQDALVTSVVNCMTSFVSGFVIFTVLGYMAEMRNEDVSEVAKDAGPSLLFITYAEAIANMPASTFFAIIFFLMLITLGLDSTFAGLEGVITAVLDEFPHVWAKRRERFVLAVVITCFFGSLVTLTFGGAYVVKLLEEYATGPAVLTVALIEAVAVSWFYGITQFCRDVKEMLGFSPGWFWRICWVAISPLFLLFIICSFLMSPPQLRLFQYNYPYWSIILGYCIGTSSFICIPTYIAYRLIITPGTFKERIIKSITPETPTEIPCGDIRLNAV
Sequence of Angiotensin-converting enzyme (P12821 whole entry): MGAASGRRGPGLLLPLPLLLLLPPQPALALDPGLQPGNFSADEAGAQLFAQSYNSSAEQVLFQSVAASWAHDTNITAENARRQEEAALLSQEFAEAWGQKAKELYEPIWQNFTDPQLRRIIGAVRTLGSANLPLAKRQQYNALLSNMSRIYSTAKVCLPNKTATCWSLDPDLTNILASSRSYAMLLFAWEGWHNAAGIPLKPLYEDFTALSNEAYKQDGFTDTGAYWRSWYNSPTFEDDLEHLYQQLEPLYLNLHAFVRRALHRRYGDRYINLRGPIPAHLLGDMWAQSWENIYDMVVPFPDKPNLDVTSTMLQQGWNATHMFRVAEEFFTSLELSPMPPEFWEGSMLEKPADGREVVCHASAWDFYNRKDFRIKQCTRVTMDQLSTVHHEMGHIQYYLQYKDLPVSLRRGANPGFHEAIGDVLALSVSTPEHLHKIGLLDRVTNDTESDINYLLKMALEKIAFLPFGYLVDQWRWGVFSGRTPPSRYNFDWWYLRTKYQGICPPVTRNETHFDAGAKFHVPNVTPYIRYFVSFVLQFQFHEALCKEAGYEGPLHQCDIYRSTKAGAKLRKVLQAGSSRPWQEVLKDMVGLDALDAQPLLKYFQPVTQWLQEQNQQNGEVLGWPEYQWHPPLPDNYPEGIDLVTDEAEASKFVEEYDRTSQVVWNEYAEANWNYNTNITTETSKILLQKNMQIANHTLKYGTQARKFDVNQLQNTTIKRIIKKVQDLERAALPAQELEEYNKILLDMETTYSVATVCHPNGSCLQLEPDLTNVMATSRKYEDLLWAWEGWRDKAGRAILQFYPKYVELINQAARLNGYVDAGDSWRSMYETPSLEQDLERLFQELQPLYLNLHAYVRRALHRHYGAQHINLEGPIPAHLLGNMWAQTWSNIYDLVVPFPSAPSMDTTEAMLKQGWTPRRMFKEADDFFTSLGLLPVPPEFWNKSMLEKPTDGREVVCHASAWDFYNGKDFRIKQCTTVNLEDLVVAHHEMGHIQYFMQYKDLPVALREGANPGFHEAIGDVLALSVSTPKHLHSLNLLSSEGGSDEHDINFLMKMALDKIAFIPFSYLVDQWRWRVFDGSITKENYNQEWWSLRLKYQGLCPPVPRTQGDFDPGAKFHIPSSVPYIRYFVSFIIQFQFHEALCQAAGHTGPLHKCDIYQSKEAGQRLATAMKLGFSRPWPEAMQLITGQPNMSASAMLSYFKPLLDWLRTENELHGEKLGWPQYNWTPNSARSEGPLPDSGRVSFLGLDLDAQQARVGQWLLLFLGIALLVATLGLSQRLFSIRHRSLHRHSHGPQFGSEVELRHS
Sequence of Histone deacetylase 2 (Q92769 whole entry): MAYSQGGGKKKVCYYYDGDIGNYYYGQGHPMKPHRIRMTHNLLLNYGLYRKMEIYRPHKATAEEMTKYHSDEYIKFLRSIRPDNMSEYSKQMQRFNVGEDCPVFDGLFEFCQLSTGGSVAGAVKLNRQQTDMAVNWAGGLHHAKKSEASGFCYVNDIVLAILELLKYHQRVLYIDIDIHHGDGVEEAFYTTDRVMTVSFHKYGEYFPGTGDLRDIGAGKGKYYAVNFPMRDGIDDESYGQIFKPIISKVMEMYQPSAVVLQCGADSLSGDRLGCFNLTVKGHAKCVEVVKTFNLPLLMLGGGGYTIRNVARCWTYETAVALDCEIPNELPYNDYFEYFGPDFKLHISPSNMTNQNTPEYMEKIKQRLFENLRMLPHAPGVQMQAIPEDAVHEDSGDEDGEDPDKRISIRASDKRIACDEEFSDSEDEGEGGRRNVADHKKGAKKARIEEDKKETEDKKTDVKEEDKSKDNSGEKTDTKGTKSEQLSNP
Sequence of E3 ubiquitin-protein ligase XIAP (Homo sapiens, UniProt P98170) (P98170 whole entry, the tested form may be a part): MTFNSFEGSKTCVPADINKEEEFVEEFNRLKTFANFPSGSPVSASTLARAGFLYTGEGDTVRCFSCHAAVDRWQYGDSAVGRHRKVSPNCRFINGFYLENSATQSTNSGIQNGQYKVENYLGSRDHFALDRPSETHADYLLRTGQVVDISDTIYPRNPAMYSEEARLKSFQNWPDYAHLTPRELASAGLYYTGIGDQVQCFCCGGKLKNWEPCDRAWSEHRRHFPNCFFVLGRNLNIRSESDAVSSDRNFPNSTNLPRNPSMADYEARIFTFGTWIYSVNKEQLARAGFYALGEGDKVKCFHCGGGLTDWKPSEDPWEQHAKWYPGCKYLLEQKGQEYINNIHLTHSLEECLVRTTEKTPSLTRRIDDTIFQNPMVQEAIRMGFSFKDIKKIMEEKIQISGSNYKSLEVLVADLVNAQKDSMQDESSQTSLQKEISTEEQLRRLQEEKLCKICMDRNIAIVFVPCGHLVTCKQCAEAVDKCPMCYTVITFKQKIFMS
Sequence of E3 ubiquitin-protein ligase XIAP (Homo sapiens, UniProt P98170, C202A/C213G) (P98170 whole entry C202A/C213G, the tested form may be a part): as the sequence (P98170 whole entry, the tested form may be a part) above, with C202A, C213G counted along it

With `CC(C)(O)c1ccccc1` the MLC (Staphylococcus aureus) was 0.78%, the MLC (Enterococcus faecalis) was 0.93% and the MLC (Pseudomonas aeruginosa) was 0.71%. For the same molecule, the MLC (Escherichia coli) was 0.96%.
With `c1ccc(CCN2CC[Si]3(CCCc4ccccc43)CC2)cc1` the Ki [1] was 0.0029 µM and the Ki [2] was 0.039 µM.
Work on `C[Si](O)(O)CCCCCCC(=O)Nc1ccccc1` yielded an IC50 (Histone deacetylase 2) of 6.3 µM and an IC50 (Histone deacetylase 1) of 2.7 µM.
`c1ccc(CN2CCC3(CCCc4ccccc43)CC2)cc1` showed a Ki [1] of 0.002 µM and a Ki [2] of 0.044 µM.
Molecule `CC(C)CCN1CC[Si]2(CCCc3ccccc32)CC1` has a Ratio Ki [3] of 63, a Ki [1] of 0.0003 µM and a Ki [2] of 0.019 µM.
`CCOc1cc(Cl)c(C(=O)NC(=O)Nc2nc3c(s2)C[Si](C)(c2c(OC)cccc2OC)CC3)cc1N1CCOCC1` (centres undefined) gave an EC50 [4] of 1.3 µM, an EC50 (Protein Gpr81) of 1.2 µM and a logD [5] of 4.6.
In the case of `C=CC(C)(C)O`, the MLC (Staphylococcus aureus) is reported as 4.37%, the MLC (Enterococcus faecalis) is reported as 5.63% and the MLC (Pseudomonas aeruginosa) is reported as 3.67%. The MLC (Escherichia coli) was 5.23%.
For `c1ccc(CCN2CCC3(CCCc4ccccc43)CC2)cc1`, the Ki [1] was 0.008 µM and the Ki [2] was 0.034 µM.
With `CN[C@@H](C)C(=O)N[C@@H](Cc1ccc(C#CC(=O)N[C@H]2C[C@@H](C(=O)N[C@@H]3CCCc4ccccc43)N(C(=O)[C@@H](NC(=O)[C@H](C)NC)C(C)(C)C)C2)cc1)C(=O)N1C[Si](C)(C)C[C@H]1C(=O)N[C@@H]1CCCc2ccccc21` the IC50 [6] was 0.003 µM and the IC50 [7] was 0.004 µM.
`CC(C)CCN1CCC2(CCCc3ccccc32)CC1` showed a Ki [1] of 0.0018 µM and a Ki [2] of 0.0055 µM.
With `COC(=O)/C(=N/NC(=O)c1ccc(CO[Si](C)(C)C(C)(C)C)o1)c1ccccc1` the IC50 (MCF7) was 13.3 mg/L (≈ 31.9 µM).
With `CCOC(=O)/C(=N/NC(=O)c1ccc(CO[Si](C)(C)C(C)(C)C)o1)c1ccccc1` the IC50 (HT-29) was 8.6 mg/L (≈ 20 µM) and the IC50 (MCF7) was 13.3 mg/L (≈ 30.9 µM).
Molecule `COc1ccc(CN2CCC3(CCCc4ccccc43)CC2)cc1` has a Ki [1] of 0.0038 µM and a Ki [2] of 0.206 µM.
`C[C@H](C[Si](O)(O)[C@H](Cc1ccccc1)NC(=O)[C@@H]1CCCN1)C(N)=O` gave a Ki (Chymotrypsinogen A) of 0.107 µM.
With `CC(C)(C)O` [TERT-BUTANOL] the MLC (Staphylococcus aureus) was 10.61%, the MLC (Enterococcus faecalis) was 13.33% and the MLC (Pseudomonas aeruginosa) was 9.79%. It also gave an MLC (Escherichia coli) of 13.54%.
`CC[Si](C)(C)O` gave an MLC (Staphylococcus aureus) of 0.8%, an MLC (Enterococcus faecalis) of 1.14% and an MLC (Pseudomonas aeruginosa) of 0.87%. For the same molecule, the MLC (Escherichia coli) was 1.04%.
Molecule `COc1ccc(CN2CC[Si]3(CCCc4ccccc43)CC2)cc1` has a Ki [1] of 0.0027 µM and a Ki [2] of 0.46 µM.
Molecule `CCOc1cc(Cl)c(C(=O)NC(=O)Nc2nc3c(s2)CCCC3)cc1N1CCOCC1` has an EC50 [4] of 2.1 µM, an EC50 (Protein Gpr81) of 0.24 µM and a logD [5] of 4.2.
In the case of `CCC(C)(C)O` [AMYLENE HYDRATE], the MLC (Staphylococcus aureus) is reported as 4.17%, the MLC (Enterococcus faecalis) is reported as 5.67% and the MLC (Pseudomonas aeruginosa) is reported as 3.96%. The MLC (Escherichia coli) was 5.09%.
For `C[C@H](CS)C(=O)N1C[Si](C)(C)C[C@H]1C(=O)O`, the IC50 [8] was 0.043 µM.
In the case of `c1ccc(CN2CC[Si]3(CCCc4ccccc43)CC2)cc1`, the Ratio Ki [3] is reported as 221, the Ki [1] is reported as 0.0011 µM and the Ki [2] is reported as 0.243 µM.
For `COc1ccc(C(CN(C)C)[Si]2(O)CCCC2)cc1` (racemic), the IC50 [9] was 0.904 µM, the IC50 [10] was 0.275 µM and the IC50 [11] was 0.707 µM.
In the case of `CCOc1cc(Cl)c(C(=O)NC(=O)Nc2nc3c(s2)C[Si](C)(c2ccc(OC)cc2)CC3)cc1N1CCOCC1` (centres undefined), the EC50 [4] is reported as 1.2 µM, the EC50 (Protein Gpr81) is reported as 1 µM and the logD [5] is reported as 4.8.
`CC(C)OC(=O)/C(=N/NC(=O)c1ccc(CO[Si](C)(C)C(C)(C)C)o1)c1ccccc1` gave an IC50 (HT-29) of 6.4 mg/L (≈ 14.4 µM) and an IC50 (MCF7) of 3.6 mg/L (≈ 8.1 µM).
For `C[Si](C)(O)c1ccccc1`, the MLC (Staphylococcus aureus) was 0.26%, the MLC (Enterococcus faecalis) was 0.42% and the MLC (Pseudomonas aeruginosa) was 0.35%. For the same molecule, the MLC (Escherichia coli) was 0.27%.
`C=C[Si](C)(C)O` gave an MLC (Staphylococcus aureus) of 1.04%, an MLC (Enterococcus faecalis) of 1.32% and an MLC (Pseudomonas aeruginosa) of 1%. For the same molecule, the MLC (Escherichia coli) was 1.23%.
